Measurements as given in patent publication US10221163B2 (priority 2015, dated 2019).
Where two headings read alike, the source gives them in different places.

What was measured:
VIM-1 = VIM-1 (Pseudomonas aeruginosa (strain ATCC 15692 / DSM 22644 / CIP 104116 / JCM 14847 / LMG 12228 / 1C / PRS 101 / PAO1), UniProt A0A0F7KYQ8); assay: biochemical; settings: CCF2-FA substrate, 30 pM enzyme, 2 hours at 25° C.
Summary of the method: (§1)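 Test compound, enzyme and the FRET cephalosporin substrate CCF2-FA are incubated together for 2 hours at 25° C. Cleavage is followed by fluorescence, and IC50 values are derived from semi-logarithmic inhibition curves fitted with a 4-parameter model.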

IMP-1 = IMP-1 (Serratia marcescens, UniProt P52699); assay: biochemical; assay type: biochemical; settings: fluorescence assay, CCF2-FA substrate, 2 pM enzyme, 2 hours at 25° C.; read-out: IMP-1 IC50
Chain of IMP-1 (P52699 whole entry, looked up, species assumed): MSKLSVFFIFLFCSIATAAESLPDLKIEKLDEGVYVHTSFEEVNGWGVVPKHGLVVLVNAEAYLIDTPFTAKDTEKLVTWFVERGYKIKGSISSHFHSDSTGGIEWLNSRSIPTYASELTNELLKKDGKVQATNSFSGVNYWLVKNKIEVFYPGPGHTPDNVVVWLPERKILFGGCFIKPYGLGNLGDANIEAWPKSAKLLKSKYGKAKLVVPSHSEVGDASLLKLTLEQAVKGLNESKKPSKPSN
Summary of the method: as §1

NDM-1 = NDM-1 (Klebsiella pneumoniae, UniProt C7C422); assay: biochemical; assay type: biochemical; settings: fluorescence assay, CCF2-FA substrate, 1 pM enzyme, 2 hours at 25° C.; read-out: NDM-1 IC50
Chain of NDM-1 (C7C422 whole entry, looked up, species assumed): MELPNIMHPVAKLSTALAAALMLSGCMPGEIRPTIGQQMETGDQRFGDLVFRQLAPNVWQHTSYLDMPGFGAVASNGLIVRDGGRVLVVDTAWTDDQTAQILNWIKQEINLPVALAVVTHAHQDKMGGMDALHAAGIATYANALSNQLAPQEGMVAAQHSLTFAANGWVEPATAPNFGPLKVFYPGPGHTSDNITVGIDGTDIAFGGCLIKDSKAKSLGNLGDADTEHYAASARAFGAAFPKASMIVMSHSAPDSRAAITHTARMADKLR
Summary of the method: as §1

[1] = tested on: Pseudomonas aeruginosa efflux− (MB9799), IMP-1; assay type: cell-based; settings: concentration restoring susceptibility to imipenem at 2 μg/mL in the presence of a class A, C, D serine β-lactamase inhibitor closely related to relebactam
Summary of the method: (§2)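 Microbroth MIC tests in PAO1-background strains with fixed imipenem and/or ceftazidime, usually at the CLSI breakpoint, plus fixed class A/C β-lactamase inhibitor against AmpC. MBL inhibitor titrated; concentration restoring susceptibility recorded and compared as fold difference between efflux+ MB9798 and efflux− MB9799.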

[2] = tested on: Pseudomonas aeruginosa efflux+ (MB9798), IMP-1; assay type: cell-based; settings: concentration restoring susceptibility to imipenem at 2 μg/mL in the presence of a class A, C, D serine β-lactamase inhibitor closely related to relebactam
Summary of the method: as §2

[3] = tested on: Pseudomonas aeruginosa MB9798 vs MB9799; settings: ratio MITC95 PA_9798/MITC95 PA_9799
Summary of the method: as §2

[4] = tested on: Klebsiella pneumoniae expressing VIM-1 (IHMA599644); assay type: cell-based; settings: with imipenem 1 μg/ml; 95% inhibition of bacterial growth
Summary of the method: (§3)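 Clinical strains grown overnight on blood agar at 35°C, colonies suspended in saline, diluted 1:100 into 1.1×CAMHB. Test compound titrated with imipenem at 1 μg/ml; incubated 22–24 h at 35°C, growth read by absorbance.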

[5] = tested on: Escherichia coli expressing NDM-1 (CLB30005, CLB30016); assay type: cell-based; settings: with imipenem 1 μg/ml; 95% inhibition of bacterial growth
Summary of the method: as §3

[6] = tested on: Serratia marcescens expressing IMP-1 (CL5741); assay type: cell-based; settings: with imipenem 1 μg/ml; 95% inhibition of bacterial growth
Summary of the method: as §3

[7] = fluorescence assay, read-out: VIM-1 IC50

Row | SMILES | IC50 (VIM-1; VIM-1 IC50, fluorescence assay) | IC50 (IMP-1) | IC50 (NDM-1) | P. aeruginosa expressing IMP-1, efflux − (MB9799) MITC95 [1] | P. aeruginosa expressing IMP-1, efflux + (MB9798) MITC95 [2] | Efflux ratio [3] | Klebsiella pneumoniae expressing VIM-1 (IHMA599644) MITC95 [4] | Escherichia coli expressing NDM-1 (CLB30016) MITC95 [5] | Serratia marcescens expressing IMP-1 (CL5741) MITC95 [6] | IC50 (VIM-1; [7])
1 | Nc1ncccc1-c1ccc(S(=O)(=O)N[C@H]2C[C@@H]2N)c(S(N)(=O)=O)c1-c1nn[nH]n1 [Example 216, N1-((1S)-2-amino-cyclopropyl)-4-(2-aminopyridin-3-yl)-3-(2H-tetrazol-5-yl)benzene-1,2-disulfonamide] | 0.269 nM | 1.83 nM | 0.237 nM | 1.563 µM | 6.25 µM | 4.00 | 3.125 µM | 0.1953 µM | 0.7813 µM | 
2 | Nc1ccc(-c2ccc(S(=O)(=O)NCCc3ncc[nH]3)c(S(N)(=O)=O)c2-c2nn[nH]n2)cn1 [Example 218, N^1-(2-(1H-imidazol-2-yl)ethyl)-4-(6-aminopyridin-3-yl)-3-(2H-tetrazol-5-yl)benzene-1,2-disulfonamide] | 0.549 nM | 0.694 nM | 0.786 nM | 1.563 µM | 25 µM | 15.99 | 3.125 µM | 0.1953 µM | 0.7813 µM | 
3 | Nc1cncc(-c2ccc(S(=O)(=O)N[C@@H]3CCNC3)c(S(N)(=O)=O)c2-c2nn[nH]n2)c1 [Example 219, (R)-4-(5-aminopyridin-3-yl)-N1-(pyrrolidin-3-yl)-3-(2H-tetrazol-5-yl)benzene-1,2-disulfonamide] |  | 1.93 nM | 0.366 nM | 1.563 µM | 1.563 µM | 1.00 | 1.563 µM | 1.563 µM | 1.563 µM | 0.209 nM
4 | NS(=O)(=O)c1c(S(=O)(=O)N[C@@H]2CCNC2)ccc(-c2cccnc2N2CCNCC2)c1-c1nn[nH]n1 [Example 220, (R)-4-(2-(piperazin-1-yl)pyridin-3-yl)-N1-(pyrrolidin-3-yl)-3-(2H-tetrazol-5-yl)benzene-1,2-disulfonamide] |  | 35.8 nM | 1.57 nM | 1.563 µM | 6.25 µM | 4.00 | 1.563 µM | 1.563 µM | 3.125 µM | 0.442 nM
5 | C[C@H](CN)NS(=O)(=O)c1ccc(-c2cncc(N)c2)c(-c2nn[nH]n2)c1S(N)(=O)=O [Example 221, (R)—N1-(1-aminopropan-2-yl)-4-(5-aminopyridin-3-yl)-3-(2H-tetrazol-5-yl)benzene-1,2-disulfonamide] |  | 0.688 nM | 0.281 nM | 1.563 µM | 1.563 µM | 1.00 | 6.25 µM | 1.563 µM | 1.563 µM | 0.152 nM
6 | NC[C@H](O)CNS(=O)(=O)c1ccc(-c2ccncc2N)c(-c2nn[nH]n2)c1S(N)(=O)=O [Example 222, (S)—N1-(3-amino-2-hydroxypropyl)-4-(3-aminopyridin-4-yl)-3-(2H-tetrazol-5-yl)benzene-1,2-disulfonamide] |  | 1.19 nM | 0.311 nM | 1.563 µM | 1.563 µM | 1.00 | 3.125 µM | 0.3906 µM | 1.563 µM | 0.445 nM
7 | NC[C@H](N)CNS(=O)(=O)c1ccc(-c2cnccc2N)c(-c2nn[nH]n2)c1S(N)(=O)=O [Example 223, (S)-4-(4-aminopyridin-3-yl)-N1-(2,3-diaminopropyl)-3-(2H-tetrazol-5-yl)benzene-1,2-disulfonamide] | 1.41 nM | 4.51 nM | 1.75 nM | 0.7813 µM | 1.563 µM | 2.00 | 0.3906 µM | 0.09766 µM | 0.3906 µM | 
8 | NS(=O)(=O)c1c(S(=O)(=O)N[C@@H]2CCNC2)ccc(-c2cccc(-c3nc[nH]n3)c2)c1-c1nn[nH]n1 [Example 225, (R)-N4-(pyrrolidin-3-yl)-2-(2H-tetrazol-5-yl)-3′-(1H-1,2,4-triazol-3-yl)-[1,1′-biphenyl]-3,4-disulfonamide] |  | 0.11 nM | 0.0256 nM | 1.563 µM | 1.563 µM | 1.00 | 3.125 µM | 3.125 µM | 1.563 µM | 0.0561 nM
9 | N[C@@H](CO)CNS(=O)(=O)c1ccc(-c2cccc(C3N=CN=N3)c2)c(-c2nn[nH]n2)c1S(N)(=O)=O (stereo partly drawn) [Example 226, N4-((R)-2-amino-3-hydroxypropyl)-2-(2H-tetrazol-5-yl)-3′-(3H-1,2,4-triazol-3-yl)-[1,1′-biphenyl]-3,4-disulfonamide] |  | 3.24 nM | 0.747 nM | 3.125 µM | 6.25 µM | 2.00 | 12.5 µM | 6.25 µM | 3.125 µM | 0.948 nM
10 | NCC(CN)NS(=O)(=O)c1ccc(-c2cccc(-c3nc[nH]n3)c2)c(-c2nn[nH]n2)c1S(N)(=O)=O [Example 227, N4-(1,3-diaminopropan-2-yl)-2-(2H-tetrazol-5-yl)-3′-(1H-1,2,4-triazol-3-yl)-[1,1′-biphenyl]-3,4-disulfonamide] |  | 0.165 nM | 0.048 nM | 1.563 µM | 1.563 µM | 1.00 | 3.125 µM | 1.563 µM | 1.563 µM | 0.137 nM
11 | NCCNS(=O)(=O)c1ccc(-c2cccc(-c3n[nH]c(N)n3)c2)c(-c2nn[nH]n2)c1S(N)(=O)=O [Example 228, 3′-(5-amino-1H-1,2,4-triazol-3-yl)-N4-(2-aminoethyl)-2-(2H-tetrazol-5-yl)-[1,1′-biphenyl]-3,4-disulfonamide] |  | 0.562 nM | 0.0864 nM | 1.563 µM | 1.563 µM | 1.00 | 3.125 µM | 0.7813 µM | 1.563 µM | 0.15 nM
12 | NCC(CN)NS(=O)(=O)c1ccc(-c2cccc(C3N=NC(N)=N3)c2)c(-c2nn[nH]n2)c1S(N)(=O)=O (stereo not drawn) [Example 229, 3′-(5-amino-3H-1,2,4-triazol-3-yl)-N4-(1,3-diaminopropan-2-yl)-2-(2H-tetrazol-5-yl)-[1,1′-biphenyl]-3,4-disulfonamide] |  | 0.173 nM | 0.0308 nM | 3.125 µM | 1.563 µM | 0.50 | 3.125 µM | 0.7813 µM | 3.125 µM | 0.12 nM
